Key:
[1] = system: AMARE; experiment: Greenhouse test, post-emergence treatment; format: in vivo, Amaranthus retroflexus
Text: (§1) The seeds of the test plants were sown separately for each species. For the post-emergence treatment, the test plants were first grown to a height of […], depending on the plant habit, and only then treated with the active ingredients which had been suspended or emulsified in water. For this purpose, the test plants were either sown directly and grown in the same containers, or they were first grown separately as seedlings and transplanted into the test containers a few days prior to treatment. Depending on the species, the plants were kept at 10-25° C. or 20-35° C., respectively. The test period extended over 2 to 4 weeks. During this time, the plants were tended, and their response to the individual treatments was evaluated. Evaluation was carried out using a scale from 0 to 100. 100 means no emergence of the plants, or complete destruction of at least the aerial moieties, and 0 means no damage, or normal course of growth. […] The plants used in the greenhouse experiments were of the following species: [table]

[2] = system: BRSNW; experiment: Greenhouse test, post-emergence treatment; format: in vivo, Winter rape; conditions: 0.0312 kg/ha
Text: as §1

[3] = system: CHEAL; experiment: Greenhouse test, post-emergence treatment; format: in vivo, Chenopodium album; conditions: 0.0312 kg/ha
Text: as §1

[4] = system: AMARE; experiment: Greenhouse test, pre-emergence treatment; format: in vivo, Amaranthus retroflexus
Text: (§2) The seeds of the test plants were sown separately for each species. For the pre-emergence treatment, the active ingredients, which had been suspended or emulsified in water, were applied directly after sowing by means of finely distributing nozzles. The containers were irrigated gently to promote germination and growth and subsequently covered with transparent plastic hoods until the plants had rooted. This cover caused uniform germination of the test plants, unless this had been impaired by the active ingredients. Depending on the species, the plants were kept at 10-25° C. or 20-35° C., respectively. The test period extended over 2 to 4 weeks. During this time, the plants were tended, and their response to the individual treatments was evaluated. Evaluation was carried out using a scale from 0 to 100. 100 means no emergence of the plants, or complete destruction of at least the aerial moieties, and 0 means no damage, or normal course of growth. […] The plants used in the greenhouse experiments were of the following species: [table]

[5] = system: ALOMY; experiment: Greenhouse test, pre-emergence treatment; format: in vivo, Alopecurus myosuroides
Text: as §2

[6] = system: SETFA; experiment: Greenhouse test, pre-emergence treatment; format: in vivo, Setaria faberi; conditions: 0.5 kg/ha, SETFA
Text: as §2

[7] = system: APESV; experiment: Greenhouse test, pre-emergence treatment; format: in vivo, Apera spica-venti; conditions: 250 g/ha
Text: as §2

[8] = system: ABUTH; experiment: Greenhouse test, post-emergence treatment; format: in vivo, Abutilon theophrasti
Text: as §1

[9] = system: SETVI; experiment: Greenhouse test, post-emergence treatment; format: in vivo, Setaria viridis; conditions: 125 g/ha, STEVI
Text: as §1

[10] = 500 g/ha, stated in words without grade

SMILES: CC(C)(F)c1nc(N)nc(Nc2c(F)ccc3c2OCO3)n1 [Example 1, N2-(5-fluoro-1,3-benzodioxo1-4-yl)-6-(1-fluoro-1-methyl-ethyl)-1,3,5-triazine-2,4-diamine]
- herbicidal activity ([1]; 0.0312 kg/ha): very good (a very good herbicidal activity is given at values of at least 85)
- herbicidal activity [2]: good (a good herbicidal activity is given at values of at least 70)
- herbicidal activity [3]: good (a good herbicidal activity is given at values of at least 70)

SMILES: CC(C)(F)c1nc(N)nc(Nc2c(Br)ccc3c2OCO3)n1 [Example 3]
- herbicidal activity ([4]; 0.5 kg/ha): very good (a very good herbicidal activity is given at values of at least 85)
- herbicidal activity ([5]; 0.5 kg/ha): very good (a very good herbicidal activity is given at values of at least 85)
- herbicidal activity [6]: very good (a very good herbicidal activity is given at values of at least 85)

SMILES: CC1(c2nc(N)nc(Nc3c(F)ccc4c3OCO4)n2)CCCCC1 [Example 6]
- pest or weed control at 250 g/ha ([4]; Amaranthus retroflexus, read-out: herbicidal activity, 250 g/ha): ≥ 70%
- herbicidal activity ([5]; 250 g/ha): good (a good herbicidal activity is given at values of at least 70)
- herbicidal activity [7]: very good (a very good herbicidal activity is given at values of at least 85)

SMILES: Nc1nc(Nc2c(F)ccc3c2OCO3)nc(N2CCC2)n1 [Example 18]
- herbicidal activity [1, 10]: herbicidal activity
- herbicidal activity [8, 10]: herbicidal activity

SMILES: Nc1nc(Nc2c(F)ccc3c2OCO3)nc(N2CCCCC2)n1 [Example 21]
- herbicidal activity ([1]; 500 g/ha): very good (a very good herbicidal activity is given at values of at least 85)
- herbicidal activity ([8]; 500 g/ha): good (a good herbicidal activity is given at values of at least 70)

SMILES: CC(C)(F)c1nc(N)nc(Nc2c(F)c(F)cc3c2OCO3)n1 [Example 30]
- herbicidal activity ([1]; 125 g/ha): very good (a very good herbicidal activity is given at values of at least 85)
- herbicidal activity ([8]; 125 g/ha): very good (a very good herbicidal activity is given at values of at least 85)
- herbicidal activity [9]: very good (a very good herbicidal activity is given at values of at least 85)

Source: patent US9822105B2, “Diaminotriazine compounds as herbicides” (BASF SE, priority 2014, dated 2017)
